Measured values as given in EPA's ToxRefDB 2.

Legend:
dog [1] = details: Subchronic oral toxicity in nonrodent, beagle, Capsule, dose end: 13 week, group: systemic
rat [2] = details: Subchronic oral toxicity in rodents, fischer, Feed, dose end: 13 week, group: systemic
rabbit = details: Prenatal developmental toxicity study; new zealand white; Oral; Gavage/Intubation; dose end: 19 GD; group: maternal; systemic / in life observation / body weight / body weight gain + systemic / in life observation / clinical signs / altered breathing rate…
dog [3] = details: Chronic toxicity; beagle; Oral; Capsule; dose end: 52 week; group: systemic; systemic / hematology / mean corpuscular hemoglobin (mch) / mean corpuscular hemoglobin (mch) + systemic / hematology / mean corpuscular …
mouse = details: Carcinogenicity, cd1, Oral, Feed, dose end: 80 week, group: systemic
rat [4] = details: Multigenerational reproductive toxicity study, sprague dawley, Oral, Feed, dose end: 2 generation; for LEL / NEL: systemic / organ weight / liver / relative to body weight
rat [5] = details: Combined chronic toxicity/carcinogenicity, fischer, Oral, Feed, dose end: 104 week, group: systemic
rat [6] = details: Prenatal developmental toxicity study, sprague dawley, Oral, Gavage/Intubation, dose end: 15 GD
[7] = systemic / clinical chemistry / glucose / glucose + systemic / clinical chemistry / alanine aminotransferase (alt/sgpt) / alanine …
[8] = systemic / clinical chemistry / cholesterol / cholesterol + systemic / hematology / hematocrit (hct) / hematocrit (hct) + systemic / …
[9] = systemic / hematology / hematocrit (hct) / hematocrit (hct)
[10] = group: parental, systemic / in life observation / body weight / body weight gain + systemic / organ weight / liver / relative to body weight + systemic / …
[11] = systemic / clinical chemistry / protein / protein
[12] = group: developmental, developmental / developmental malformation / bone / full supernumerary
[13] = group: developmental, developmental / developmental malformation / bone / full supernumerary + developmental / developmental malformation / bone / incomplete …
[14] = group: maternal, systemic / organ weight / placenta / nos
[15] = group: maternal, systemic / organ weight / placenta / nos + systemic / in life observation / body weight / body weight + systemic / in life observation / …

Structure (SMILES): Clc1ccc(C2(Cn3cncn3)CC(Br)CO2)c(Cl)c1 (centres undefined) [Bromuconazole]
- LOAEL (dog [1]; systemic / clinical chemistry / glucose / glucose): 25 mg/kg/day
- NEL (dog [1]; [7]): 2.5 mg/kg/day
- NOAEL (dog [1]; [7]): 2.5 mg/kg/day
- LEL (dog [1]; systemic / clinical chemistry / glucose / glucose + systemic / organ weight / liver / relative to body weight): 25 mg/kg/day
- LOAEL (rat [2]; [8]): 68.1 mg/kg/day
- NOAEL (rat [2]; [8]): 13.8 mg/kg/day
- LEL (rat [2]; [9]): 2.72 mg/kg/day
- NEL (rat [2]; [9]): < 2.72 mg/kg/day
- LEL (rabbit): 50 mg/kg/day
- LOAEL (rabbit): 50 mg/kg/day
- NEL (rabbit): 12.5 mg/kg/day
- NOAEL (rabbit): 12.5 mg/kg/day
- LEL (dog [3]): 25 mg/kg/day
- LOAEL (dog [3]): 25 mg/kg/day
- NEL (dog [3]): 2.5 mg/kg/day
- NOAEL (dog [3]): 2.5 mg/kg/day
- LOAEL (mouse; systemic / in life observation / body weight / body weight gain): 113 mg/kg/day
- NOAEL (mouse; systemic / in life observation / body weight / body weight gain + systemic / pathology microscopic / liver / adenoma + systemic / organ …): 10.8 mg/kg/day
- NEL (mouse; systemic / organ weight / liver / absolute + systemic / organ weight / liver / relative to body weight + systemic / organ weight / adrenal …): 370 mg/kg/day
- LOAEL (rat [4]; group: offspring, systemic / in life observation / body weight / offspring (pup) weight gain): 141 mg/kg/day
- NOAEL (rat [4]; group: offspring, systemic / in life observation / body weight / offspring (pup) weight gain + developmental / offspring survival late / viability index / …): 13.8 mg/kg/day
- LEL (rat [4]; group: offspring): 1.6 mg/kg/day
- NEL (rat [4]; group: offspring): < 1.6 mg/kg/day
- LOAEL (rat [4]; [10]): 141 mg/kg/day
- NOAEL (rat [4]; [10]): 13.8 mg/kg/day
- LEL (rat [4]; group: parental): 1.3 mg/kg/day
- NEL (rat [4]; group: parental): < 1.3 mg/kg/day
- LEL (rat [5]; [11]): 0.88 mg/kg/day
- NEL (rat [5]; [11]): < 0.88 mg/kg/day
- LOAEL (rat [5]; systemic / pathology microscopic / liver / vacuolization): 8.27 mg/kg/day
- NOAEL (rat [5]; systemic / pathology microscopic / liver / vacuolization + systemic / in life observation / body weight / body weight + systemic / in life …): 1.09 mg/kg/day
- LEL (rat [6]; [12]): 70 mg/kg/day
- LOAEL (rat [6]; [12]): 70 mg/kg/day
- NEL (rat [6]; [13]): 10 mg/kg/day
- NOAEL (rat [6]; [13]): 10 mg/kg/day
- LEL (rat [6]; [14]): 70 mg/kg/day
- LOAEL (rat [6]; [14]): 70 mg/kg/day
- NEL (rat [6]; [15]): 10 mg/kg/day
- NOAEL (rat [6]; [15]): 10 mg/kg/day
